Read-outs that look alike come from different tables or passages of the source.
Assays:
[1] = biological target: T1, PR (Homo sapiens, UniProt P06401); assay type: cell-based; parameters: expressed in transfected cells; host or cells: CV-1 cells
T1 sequence (P06401 1-933): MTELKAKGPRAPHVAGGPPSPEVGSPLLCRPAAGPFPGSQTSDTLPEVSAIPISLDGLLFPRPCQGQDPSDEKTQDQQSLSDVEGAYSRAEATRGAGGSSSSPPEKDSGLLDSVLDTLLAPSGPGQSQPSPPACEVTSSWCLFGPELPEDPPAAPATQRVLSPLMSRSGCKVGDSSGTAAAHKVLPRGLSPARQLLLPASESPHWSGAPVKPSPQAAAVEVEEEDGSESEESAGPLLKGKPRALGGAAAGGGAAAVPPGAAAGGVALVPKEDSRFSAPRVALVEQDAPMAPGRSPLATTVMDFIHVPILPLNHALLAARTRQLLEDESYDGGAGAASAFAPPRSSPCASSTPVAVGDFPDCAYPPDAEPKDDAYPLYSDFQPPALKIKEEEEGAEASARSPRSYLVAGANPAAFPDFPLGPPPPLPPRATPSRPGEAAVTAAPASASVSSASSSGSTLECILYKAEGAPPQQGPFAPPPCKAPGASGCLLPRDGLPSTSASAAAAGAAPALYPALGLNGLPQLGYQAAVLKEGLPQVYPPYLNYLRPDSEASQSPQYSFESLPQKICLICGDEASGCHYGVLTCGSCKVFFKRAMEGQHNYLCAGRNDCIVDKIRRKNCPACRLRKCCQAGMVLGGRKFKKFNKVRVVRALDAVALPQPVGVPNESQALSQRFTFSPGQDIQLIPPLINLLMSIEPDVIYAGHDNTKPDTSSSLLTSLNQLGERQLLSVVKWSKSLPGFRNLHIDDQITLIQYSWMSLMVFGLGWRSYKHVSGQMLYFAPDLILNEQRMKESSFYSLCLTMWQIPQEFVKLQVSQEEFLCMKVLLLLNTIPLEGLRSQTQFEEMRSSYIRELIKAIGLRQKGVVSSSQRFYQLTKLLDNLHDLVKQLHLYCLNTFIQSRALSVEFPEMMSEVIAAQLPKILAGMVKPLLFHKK
Protocol: Cell culture and transfection: Monolayer cultures of COS-7 cells were grown at 37° C. with 5% CO2 in Dulbecco's modified Eagle's medium (DMEM; GIBCO/BRL Life Technologies, Inc.) supplemented with 5% of fetal bovine serum, respectively. The 1470.2 mouse mammary adenocarcinoma cells (Pennie et al., Mol Cell Biol 15:2125-2134, 1995) were grown in DMEM with 4.5 g glucose/L (Quality Biologicals, Inc.) whereas T47D cells were grown in Dulbecco's modified Eagle's medium with high glucose (4.5 g/L, 2 mM glutamine, and 60 ng/ml insulin), both with 10% of fetal bovine serum. The 1470.2 cells were transiently transfected with the human PR-B construct, 1 μg of MMTVLuc, and 50 ng Renilla null luciferase, with the total transfected DNA brought up to 3 μg/60 mm dish with pBSK^+DNA, using the calcium phosphate method as previously described (Szapary et al., J Biol Chem 271:30576-30582, 1996). Following 24 h of steroid treatment, the cells were harvested in 1× Passive Lysis Buffer (0.5 ml/dish; Promega, Madison, Wis.). Twenty μl of the cell lysates were used to assay for luciferase activity using the Dual-Luciferase Assay System from Promega (Madison, Wis.) and the methods recommended by the supplier. […]

[2] = biological target: T2, human PR-B (Homo sapiens, UniProt P06401); test: PR-B transactivation of MMTVLuc reporter in transiently transfected 1470.2 cells; assay type: cell-based; settings: for EC50: read-out: EC50 from dose-response curves
T2 construct: expressed in transfected cells; host or cells: 1470.2 mouse mammary adenocarcinoma cells
T2 sequence (P06401 1-933): T1 sequence (P06401 1-933)
From the text: All data were normalized for Renilla expression. […] The error bars represent the SD of triplicate plates.
All data were normalized for protein levels in the cell lysates. […] The error bars represent the SD of triplicate plates.
All data were normalized for Renilla expression.

[3] = biological target: T1, PR
From the text: The absolute levels of luciferase activity (±S.D. of triplicate values) were plotted.

[4] = 1470.2 cells, transfected human PR-B, MMTVLuc reporter

Row | EC50 [2, 4] [nM] | SMILES | agonist activity in CV-1 cells [1] | partial progestin activity with added PR [2] | EC50 [2] [nM] | antiprogestin activity: inhibition of the action of 300 pM R5020 [3] | agonist activity in CV-1 cells ([1]; CV-1 cells) | partial progestin activity with added PR ([2]; 1470.2 cells, 3 or 30 ng PR-B plasmid, 1 μM steroid, FIG. 5B) | antiprogestin activity: inhibition of the action of 300 pM R5020 ([3]; 1 μM and 10 μM Dex-Mes, 1 μM Dex-Ox, FIG. 7)
1 | – | C[C@@H]1C[C@H]2[C@@H]3CCC4=CC(=O)C=C[C@]4(C)[C@@]3(F)[C@@H](O)C[C@]2(C)[C@]12OCC2=O [Dex-Ox, dexamethasone oxetanone] | much more agonist activity than either RIT 3021-020 or RU 486 | significant amounts of partial progestin activity | ~30 | reduced the activity of 300 pM R5020 to that of the competing steroid alone | – | – | –
2 | 0.4 | CCC(=O)[C@@]1(C)CC[C@H]2[C@@H]3CCC4=CC(=O)CCC4=C3CC[C@@]21C [R5020, promegestone, reference compound] | – | – | – | – | – | – | –
3 | ~350 | C[C@@H]1C[C@H]2[C@@H]3CCC4=CC(=O)C=C[C@]4(C)[C@@]3(F)[C@@H](O)C[C@]2(C)[C@@]1(O)C(=O)COS(C)(=O)=O [Dex-Mes, dexamethasone 21-mesylate] | – | – | – | – | much more agonist activity than either RIT 3021-020 or RU 486 | significant amounts of partial progestin activity | reduced the activity of 300 pM R5020 to that of the competing steroid alone

From patent US20030207854A1, “Antiprogestins with partial agonist activity” (priority 2002, published 2003)
